From patent US20210293825A1, “METHODS FOR PRECISION THERAPEUTIC TARGETING OF HUMAN CANCER CELL MOTILITY AND KITS THEREOF” (UNITED STATES GOVERNMENT AS REPRESENTED BY THE DEPARTMENT …, priority 2018, published 2021) come the findings set out here.

Experiment [1] concerns protein phosphorylation in PC3-M and PC3 cells. Put plainly: KinomeView phospho-motif antibody screen. It is filed as cell-based, human. As to conditions: 10 μM, 3 days, ±TGFβ. An excerpt:
Seeking to identify KBU2046's biological target(s), alternative methods were pursued. The KinomeView® panel of antibodies (Cell Signaling Technology, Inc.) detect established protein phosphorylation motifs, and were used to probe for KBU2046-induced changes in protein phosphorylation (FIG. 4a and FIG. 17). Phosphoprotein changes that met the following criteria were prioritized: were induced in cells in vitro as well as in tumors of treated mice (from FIG. 2a), that counteracted transforming growth factor β (TGFβ)-induced effects, and that were reproducible. TGFβ is ubiquitous in vivo, is known to increase PCa cell invasion (Huang, X. et al., Cancer Research 65, 3470-8 (2005)), and KBU2046's anti-invasion efficacy remains in spite of TGFβ-stimulated increases in cell invasion (FIG. 18). Genistein was evaluated under identical treatment conditions for comparison. […] In tumors of treated animals KBU2046 had this same effect on this 83 kDa protein band (green arrow in FIG. 17a). The high molecular selectivity of KBU2046 was further supported by its failure to inhibit over 400 different protein kinases and 20 phosphatases examined, in three different in vitro assay systems (see, Example 1).
Phospho-proteomic Analysis. The Kinoview™ and PhosphoScan™ assays were performed by Cell Signaling Technology Inc. […]

For experiment [2], the system named is human breast cancer LM2-4H2N cells. Kind of experiment: Breast cancer orthotopic implantation / resection survival model. As to conditions: post-surgery adjuvant, 25 mg/kg daily oral gavage five times/week. The format is in vivo, SCID-Beige mice. On the procedure:
Cohorts of N=12 athymic mice bearing human PCa PC3-M cell orthotopic implants (a), or of N=5 non-tumor bearing athymic mice (b), were treated with KBU2046 incorporated into chow, and resultant lung metastasis (a) or plasma KBU2046 concentration (b) measured. Values are the mean±SEM. The relationship between dose and metastasis was evaluated by two-sided ANOVA (a). FIG. 2c a comprehensive characterization of KBU2046 pharmacokinetics. CD1 mice were dosed with 100 mg KBU2046/kg via oral gavage or intravenous injection (iv), and blood collected at the indicated time points (data from mice dosed at 25 mg/kg are in FIG. 12, and corroborate 100 mg/kg findings). For each route and time point, N=3 mice were sampled. Individual data points are the resultant plasma concentrations from individual mice, and are the mean of N=2 measurements. The dotted horizontal line denotes a concentration of 24 nM, which was the concentration of KBU2046 measured in the blood of mice whose metastasis were suppressed by 92% (a-b). […] Mice were orthotopically implanted with human breast cancer LM2-4H2N cells, the resultant primary tumors resected, and adjuvant treatment begun with KBU2046 by daily oral gavage five times/week. The survival of N=6 mice receiving vehicle was compared to that of N=6 mice receiving 25 mg/kg KBU2046 by the log rank (Mantel-Cox) test.
Breast cancer: orthotopic implantation. […]

For experiment [3], the target named is T1, RAF1 with HSP90β and CDC37 (Homo sapiens, UniProt P08238+Q16543).
T1 construct: host or cells: E. coli for HSP90β and CDC37
Kind of experiment: HSP90β/CDC37 heterocomplex in vitro kinase assay with RAF1. The format is biochemical. Particulars: purified recombinant RAF1, HSP90β and CDC37. The protocol: HEK293T cells were transfected with 1 of 420 different protein kinases, treated with 10 μM KBU2046 (N=5 replicates) or vehicle control (N=5) for three days, and LUMIER assays performed. The N=17 kinases that gave significant findings (Student's t-test <0.05) in the same direction in each of two separate experiments are depicted. Each separate treatment and kinase condition in each of two separate experiments was conducted in replicates of N=5. […] FIGS. 6c and 6d show the results of the wound healing assay. PC3 cells were transfected with siRNA targeting RAF1 (si-Raf1) or non-targeting siRNA (si-control), treated with KBU2046 or vehicle as above, and RAF1 protein measured by Western blot (c) and effects upon wound healing measured (d). […] Purified recombinant HSP90β, CDC37, and RAF1 were combined with KBU2046, as indicated, incubated in an in vitro kinase assay for the indicated times, and Western blot for RAF1-Ser^338 phosphorylation performed. FIGS. 6f and 6g show the effect on HSP90β/CDC37 heterocomplex formation and function in vitro. Purified recombinant HSP90β, CDC37, RAF1, SGK3 or MAP3K6 were combined and treated with KBU2046 or vehicle control, as indicated, incubated in an in vitro kinase assay for the indicated times, and Western blot performed, as denoted. Experiments were repeated at separate times at least once, with similar results. […]

T1 sequence (P08238 whole entry): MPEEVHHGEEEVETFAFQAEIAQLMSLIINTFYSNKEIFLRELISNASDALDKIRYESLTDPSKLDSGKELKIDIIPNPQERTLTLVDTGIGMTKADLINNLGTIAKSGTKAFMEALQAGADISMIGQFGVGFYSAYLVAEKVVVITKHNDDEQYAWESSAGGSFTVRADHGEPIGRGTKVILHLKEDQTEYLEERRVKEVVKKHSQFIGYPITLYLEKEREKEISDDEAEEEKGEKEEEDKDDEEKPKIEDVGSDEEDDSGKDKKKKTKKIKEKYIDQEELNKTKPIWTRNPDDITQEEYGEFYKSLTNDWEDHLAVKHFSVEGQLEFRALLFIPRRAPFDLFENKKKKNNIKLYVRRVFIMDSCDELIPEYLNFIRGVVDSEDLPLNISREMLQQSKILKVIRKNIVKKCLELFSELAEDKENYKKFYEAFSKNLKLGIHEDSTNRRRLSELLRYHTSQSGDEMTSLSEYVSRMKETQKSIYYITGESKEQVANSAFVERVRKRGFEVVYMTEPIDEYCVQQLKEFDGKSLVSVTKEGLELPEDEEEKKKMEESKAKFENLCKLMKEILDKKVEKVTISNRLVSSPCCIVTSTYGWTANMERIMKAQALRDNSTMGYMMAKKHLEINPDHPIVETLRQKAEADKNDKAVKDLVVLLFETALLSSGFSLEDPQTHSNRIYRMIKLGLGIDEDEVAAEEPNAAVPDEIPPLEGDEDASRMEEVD
T1 sequence (Q16543 whole entry): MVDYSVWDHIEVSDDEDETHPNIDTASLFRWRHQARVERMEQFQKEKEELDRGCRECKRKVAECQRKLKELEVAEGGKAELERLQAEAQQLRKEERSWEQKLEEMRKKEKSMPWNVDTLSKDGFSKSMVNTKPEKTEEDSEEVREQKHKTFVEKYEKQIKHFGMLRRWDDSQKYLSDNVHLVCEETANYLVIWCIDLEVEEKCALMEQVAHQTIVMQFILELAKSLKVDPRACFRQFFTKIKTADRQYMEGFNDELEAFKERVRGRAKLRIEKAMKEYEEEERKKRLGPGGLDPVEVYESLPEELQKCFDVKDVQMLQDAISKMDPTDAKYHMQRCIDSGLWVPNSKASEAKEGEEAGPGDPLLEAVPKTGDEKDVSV

Turning to `O=C1c2ccccc2OCC1c1ccc(F)cc1` (racemic) [KBU2046, (±)-3(4-fluorophenyl)chroman-4-one], the “changes in protein phosphorylation” value in experiment [1] is listed as “induced a single change that met the pre-specified criteria”. Also, the survival result in experiment [2] is listed as “significantly prolonged the survival”. Also, in experiment [3], the “phosphorylation of RAF1 Ser338 activation motif” value is “decreased phosphorylation of RAF1's Ser338 activation motif”.
